Experimental data published in patent US11072592B2, “Small molecules that enable cartilage rejuvenation” (The Regents of the University of California, priority 2015, dated 2021).
Entries after “also recorded” stand apart in the source; their conditions may differ.

Assays:
Format in all cases: cell-based
[1] = system: adult pig articular cartilage explants; assay: Proliferation (EdU) and marker expression in adult articular cartilage explants
Procedure: FIGS. 26A-26J. LIF/STAT3/MYC signaling is prominent in fetal articular chondrocytes and can activate a fetal-like phenotype in adult cells. (FIG. 26A) Levels of phospho-STAT3 (pSTAT3) and MYC protein were quantitated in human fetal and adult articular chondrocytes relative to histone H3. (FIG. 26B) Effects of soluble LIF receptor (sLIFR) on MYC and pSTAT3 protein levels on fetal articular chondrocytes after 72 hours. (FIG. 26C) Detection of apoptotic cells using TUNEL staining and flow cytometry analysis of fetal articular cartilage explants cultured in the absence (control) or presence of a MYC (10058-F4) or STAT3 (STATTIC) inhibitor for 24 hours. (FIG. 26D) Quantification of proliferating cells via EdU incorporation in fetal articular cartilage explants and also by flow cytometry analysis for BrdU. Scale bars represent 100 μm. (FIG. 26E) Assessment of metabolic activity of human fetal articular chondrocytes cultured in the presence or absence of MYC or STAT3 inhibitors. (FIG. 26F) Migration capacity of fetal articular chondrocytes was assessed using a Transwell® assay in the absence or presence of MYC and STAT3 inhibitors. (FIG. 26G) Protein levels of MYC and pSTAT3 were measured in adult human articular chondrocytes with and without incubation with LIF. Data are shown normalized to histone H3. (FIG. 26H) Migratory capacity of adult human articular chondrocytes in a Transwell® assay measured in the presence or absence of LIF. (FIG. 26I) Single adult human articular chondrocytes were cultured with or without LIF for 5 weeks to allow detection of colony-forming cells. […]
FIGS. 28A-28I. […] (FIG. 28A) Adult human articular chondrocytes were incubated with or without RCGD 423 and levels of MYC and pSTAT3 were quantified relative to histone H3. (FIG. 28B) Levels of MYC and pSTAT3 protein were measured in pig adult articular chondrocytes to determine the effects of RCGD 423 in a dose- and time-dependent manner; histone H3 was used as a loading control. (FIG. 28C) Migration of adult human articular chondrocytes in a Transwell® assay was assessed in the presence and absence of RCGD 423. […]

[2] = system: adult human articular chondrocytes; assay: Transwell migration assay, adult human articular chondrocytes
Procedure: Cells were plated on Millicell 8 μm Transwell® inserts (Millipore, Billerica, Mass.) in 12-well plates (Fisher Scientific, Pittsburgh, Pa.) and stimulated with 10 μM of RCGD 423, 10 μM MYC inhibitor (10058-F4) or 10 μM STAT3 inhibitor (STATTIC) from Tocris Bioscience (Bristol, UK). Cells that migrated across the membranes were quantified by counting after 48 hours of treatment.

[3] = system: MMP13, ADAMTS4 and ADAMTS5; assay: Quantitative PCR of catabolic genes in adult pig articular chondrocytes
Procedure: FIGS. 30A-30B. […] (FIG. 30A) Adult pig articular chondrocytes were cultured for 24 hours with the indicated cytokines or RCGD 423 and the levels of pSTAT3 and MYC were measured with respect to histone H3. Representative data for other proteins in the MAPK (p38 and MEK1/2), AKT (phospho-AKT; pAKT) or NF-KB (NF-KB p65) are also shown. (FIG. 30B) Levels of transcription of genes indicative of a catabolic response were determined via quantitative PCR in adult pig articular chondrocytes treated with OSM, IL-6, TNF-α, LIF or RCGD 423. Data are represented at mean±SD.
Cartilage degeneration is generally considered a feed-forward process, in which small losses of chondrocytes result in microenvironmental changes including induction of an inflammatory response and other pro-catabolic events (Hunziker, 2002). In turn, these alterations in the joint milieu promote production of matrix degrading proteins including MMPs (collagenases) and proteins of the ADAMTS family (aggrecanases). LIF has been implicated in promoting this cycle of matrix destruction during the pathogenesis of osteoarthritis (Hui et al., 2000; Lotz et al., 1992), although its role in this process has been controversial. In order to better understand the mechanism of action of LIF, RCGD 423 and known pro-inflammatory cytokines in the promotion of degeneration, we stimulated adult pig articular chondrocytes with these molecules and quantitated the levels of activated downstream proteins that mediate the cellular signaling response (FIG. 30A).
Total RNA was extracted using RNeasy Micro Kit (QIAGEN, Valencia, Calif.) according to the manufacturer's protocol. Quantitative reverse transcription PCR was performed using Bio-Rad T100 Thermal Cycler (Bio-Rad, Hercules, Calif.). Primer sequences are available upon request.

| Compound | proliferation of chondrocytes in adult cartilage explants (EdU) [1] | expression of the stem/progenitor cell marker ALDH 1A1 in the surface layer ([1]; adult pig cartilage explants, LIF 50 ng/mL for 3 days) | migration / migratory potential [2] | transcription of matrix degrading enzymes (MMP13, ADAMTS4 and ADAMTS5) [3] |
| --- | --- | --- | --- | --- |
| LIF: interleukin 6 (IL-6)-class cytokine | stimulated proliferation; also recorded: significantly increased | increased expression | increased | neither cytokine resulted in substantial transcriptional upregulation |
| Brc1ccc(Nc2nc(-c3ccccc3)cs2)cc1 [RCGD 423, N-(4-Bromophenyl)-4-phenyl-1,3-thiazol-2-amine] | increased | – | increased | no upregulation; also recorded: does not promote catabolism |
